Consider 4 compounds from patent publication EP4813989A1, “CRYSTAL, PHARMACEUTICAL COMPOSITION, PREPARATION METHOD THEREFOR, AND USE THEREOF” (TYK Medicines, Inc., priority 2023, dated 2025).

What all share (assay type): physicochemical
Series [1] is described as follows: Stability study of tablets (40°C/75%RH): related substances. The following applies: condition N/A. The procedure:
The inventors produced tablet 1 (40 mg) and the tablet 2 (10 mg) according to the formulations in Example 1 and Example 2. The above samples were stored under conditions of 40°C/75%RH (open), 40°C/75%RH (sealed), and 40°C/75%RH (sealed+1 g desiccant) to investigate dissolutions and related substances.

A short description of series [2]: pH-dependent solubility study. The following applies: increasing with rising pH. The text has this:
Following oral administration, the drug can be absorbed at multiple different sites along the gastrointestinal tract (including via the stomach, duodenum, jejunum, ileum, and colon). There is a significant pH change between the stomach (pH 1-3.5) and the small intestine (pH 4-8), resulting in different pH conditions at each absorption site. […] In dissolution studies, it was observed that the sink condition can be satisfied in pH 6.8 medium supplemented with SDS.

Series [3] in a line: Solid form stability on standing (XRD/PLM). The text has this:
The resulting solid sample was subjected to a corresponding characterization test. An XRD pattern of the sample can be seen in FIG. 8.
A crystal form E sample was obtained by suspending and stirring the amorphous sample prepared in Example 2 in a 1,4-dioxane/n-heptane solvent system at room temperature. XRD results of the sample can be seen in FIG. 9. […] On this basis, it was inferred that the crystal form E was a metastable crystal form.
XRD results of the sample can be seen in FIG. 17.
XRD results of the sample can be seen in FIG. 20. TGA/DSC results can be seen in FIG. 21. […] An ^1H NMR spectrum of the crystal form D was obtained by a test in DMSO-d6, and no obvious solvent residue was observed. […] Based on nuclear magnetic resonance data and heating test results of the sample, it was inferred that the crystal form D was a hydrate crystal form.

Setting [4] is: listed as Active pharmaceutical ingredient^*2.

For `C[C@@H](Nc1ccn2ncc(C3=NOC(C)(C)N3)c2n1)c1cc(F)cc(F)c1F.O` [Active pharmaceutical ingredient], in series [1], the “Individual impurity (RRT) 0.56” value is recorded as under 0.05%, the “Individual impurity (RRT) 0.66/ 0.67/ 0.69/ 0.70” value is listed as 0.22%, the “Individual impurity (RRT) 0.71/ 0.72/ 0.73/ 0.74” value is reported as 0.18% and the “Individual impurity (RRT) 0.91” value is on record as under 0.05%. In addition, in series [1], the “Individual impurity (RRT) 1.02” value worked out at 0.27%, the “Individual impurity (RRT) 1.05/ 1.06” value is given as 0.07%, the “Individual impurity (RRT) 1.07/ 1.08” value was determined as 0.18% and the “Individual impurity (RRT) 1.14” value is under 0.05%. In series [1], this compound came in with a Total impurities of 0.92%. Also, in series [1] (setting [4]), the “Individual impurity (RRT) 0.71/ 0.72/ 0.73/ 0.74” value came to 0.19%, the “Individual impurity (RRT) 1.02” value stood at 0.32%, the “Individual impurity (RRT) 1.07/ 1.08” value is 0.19% and the Total impurities is listed as 0.99%.
As to `C[C@@H](Nc1ccn2ncc(C3=NOC(C)(C)N3)c2n1)c1cc(F)cc(F)c1F` [TY-2136b, (R)-3-(5,5-dimethyl-4,5-dihydro-1,2,4-oxadiazol-3-yl)-N-(1-(2,3,5-trifluorophenyl)ethyl)pyrazolo[1 ,5-a]pyrimidin-5-amine], the solubility entry in series [2] is listed as “generally low”.
Take `C[C@@H](Nc1ccn2ncc(C3=NOC(C)(C)N3)c2n1)c1cc(F)cc(F)c1F` [crystal form B]: the Solid form stability entry in series [3] (room humidity (17.3%RH), same day) is “rapidly transformed into a crystal form C”.
`C[C@@H](Nc1ccn2ncc(C3=NOC(C)(C)N3)c2n1)c1cc(F)cc(F)c1F` [crystal form D]: the Solid form stability result in series [3] (heating to 120°C and cooling to room temperature) is “transformed into an amorphous form”. In addition, the Crystallinity entry in series [3] (standing sealed at room temperature for 2 days) is given as “significantly reduced”.
